Consider 2 compounds from PMC6527222 (PLoS ONE, 2019).

For series [1], the target named is β2-AR. The note with it: given as negative log value; cited from earlier work.
Series [2] has as its system JB6 P+ cells. Put plainly: Anchorage-independent growth assay in soft agar (EGF-induced JB6 P+ colony formation). The class given is cell-based, mouse. The following applies: for IC50 / minimal effective concentration: 10 ng/mL EGF; for minimal effective concentration: first concentration with expected statistical decrease, read-out: Soft Agar Assay Log IΔ2*PSD (converted). As for the experimental part: Ten ng/mL EGF was used to promote the anchorage-independent growth of JB6 cells. […] Plates were incubated at 37°C, 5% CO2 for 14 days. Colonies with greater than ten cells were counted manually under a microscope. […] Normalization allowed for comparison of data over a range of JB6 P+ cell cultures, passages, and experimental time for the shRNA studies, as well as control for variation in the EGF response, and importantly allowed for a direct comparison to all concentration-response experiments including the toxicity assays. […] All group sizes were determined via previous studies to provide statistically meaningful data. In the soft agar assays, key results were repeated with different JB6 P+ cells to confirm the results. Similarly, the shRNA studies were conducted with three independent concentration-response curves with different JB6 P+ cell stocks. […] For two sample comparisons a t-test was utilized, and when comparing multiple samples a One-, Two-, or Three-Factor ANOVA followed by Tukey-Kramer post hoc test was utilized depending on the data. For all tests, statistical difference was donated when p < 0.05. […] The I[…]*PSD is expressed in x-axis units (log [M]) as is an IC50 and it represents the first concentration where it is expected to observe a statistical decrease in the measured signal. […] Using the formula provided by GraphPad Prism or a straight line for the point-to-point graphs, the X-axis value for point Y was determined. The error is ascribed to this measurement via adding and subtracting the pooled standard deviation (PSD) to/from point Y generating point Y ± PSD. The two new points were then transformed to the X-axis units as was done for point Y creating an asymmetric error in sigmoidal plots. When the error was asymmetric, the larger error value was chosen to err on the conservative side. See S1 Fig for a pictoral explination of the method. The data is presented as I[…]*PSD ± error.

Series [3] relates to JB6 P+ cells. Put plainly: SRB cytotoxicity assay. The note with it: for SRB Assay Log IΔ2*PSD: 72 hr, NT = no toxicity at any concentration tested. The class given is cell-based, mouse. As for the experimental part: 96-well plates were seeded with 3x10^3 JB6 P+ cells per well and allowed to attach overnight. […] Cell viability was determined using Sulforhodamine B (SRB) assay from Sigma-Aldrich according to the manufacturer’s protocol. Cellular protein content was measured using a Bio-Tek μQuant plate reader with KCJunior software.
Concentration-response curves were normalized so that the EGF positive control on each 96-well plate was set to 100% and the control wells on each plate were set to 0%. Toxicity assays (SRB and MTS) were normalized so that the control on each plate represented 100% viability. Normalization allowed for comparison of data over a range of JB6 P+ cell cultures, passages, and experimental time for the shRNA studies, as well as control for variation in the EGF response, and importantly allowed for a direct comparison to all concentration-response experiments including the toxicity assays. […] All group sizes were determined via previous studies to provide statistically meaningful data. In the soft agar assays, key results were repeated with different JB6 P+ cells to confirm the results. Similarly, the shRNA studies were conducted with three independent concentration-response curves with different JB6 P+ cell stocks. […] For two sample comparisons a t-test was utilized, and when comparing multiple samples a One-, Two-, or Three-Factor ANOVA followed by Tukey-Kramer post hoc test was utilized depending on the data. For all tests, statistical difference was donated when p < 0.05.
The IΔ2*PSD is expressed in x-axis units (log [M]) as is an IC50 and it represents the first concentration where it is expected to observe a statistical decrease in the measured signal.
Using the formula provided by GraphPad Prism or a straight line for the point-to-point graphs, the X-axis value for point Y was determined. The error is ascribed to this measurement via adding and subtracting the pooled standard deviation (PSD) to/from point Y generating point Y ± PSD. The two new points were then transformed to the X-axis units as was done for point Y creating an asymmetric error in sigmoidal plots. When the error was asymmetric, the larger error value was chosen to err on the conservative side. See S1 Fig for a pictoral explination of the method. The data is presented as IΔ2*PSD ± error.
(In general: The SRB assay estimates cell density from bound dye.)

The test system of series [4] is β2-AR. The arrangement: method as in as printed in each cell (43-46, 48-54, 56-58). The note with it: as described in the references; ref (43-46, 48-54, 56-58); cited from earlier work.
Series [5] has as its system JB6 P+ cells. Put plainly: Soft agar assay with competitive adrenergic receptor antagonists. The note with it: Mus musculus, alone, CGP 12177 experiment (S2 Fig). The class given is cell-based. As for the experimental part:
Ten ng/mL EGF was used to promote the anchorage-independent growth of JB6 cells. […] Plates were incubated at 37°C, 5% CO2 for 14 days. Colonies with greater than ten cells were counted manually under a microscope. Antagonists identified in our assays as ineffective at blocking EGF-mediated transformation of JB6 P+ cells yet displaying no or little toxicity were used as competitive antagonists towards carvedilol-mediated prevention of EGF-induced transformation of JB6 P+ cells.

Where [6] appears, read: Mus musculus, 336 h, 14 days, negative log value, read-out: Soft Agar Assay Log IC50 (converted).

The term IC50 denotes the point on the concentration scale where inhibition reaches its midpoint.

As to `CC(C)(Cc1c[nH]c2ccccc12)NCC(O)COc1ccccc1C#N` (stereo not drawn) [Bucindolol], the “Log Kd at β2-AR” value in series [1] is -8.22 ± 0.1 [52]. Also, the IC50 in series [2] (setting [6]) was 9330 nM. For the same compound, in series [2] (Mus musculus, 336 h, 14 days), the minimal effective concentration is 1.91 µM. Moreover, the “SRB Assay Log IΔ2*PSD” value in series [3] was -4.84 ± 0.10 log [M]. Moreover, in series [3] (Toxic = no 10-fold difference between IΔ2*PSD from soft agar and SRB assays), the Toxicity label result is on record as “Toxic”. Also, the “Pharmacological property at β2-AR” value in series [4] was “Partial agonist for cAMP and full agonist for ERK [44, 52]”.

As to `OC(CNCC(O)C1CCc2cc(F)ccc2O1)C1CCc2cc(F)ccc2O1` (stereo not drawn) [Nebivolol], the “Log Kd at β2-AR” value in series [1] is -7.91 ± 0.07 [47]. Besides, the IC50 in series [2] (soft agar, read-out: IC50, inhibition of EGF-mediated transformation) was not above 1000 nM; in series [2] (Mus musculus, soft agar, read-out: IC50, inhibition of EGF-mediated transformation), 1090 nM; in series [2] (setting [6]) it was 1100 nM; in series [5], 347 nM. Also, the minimal effective concentration in series [2] (Mus musculus, 336 h, 14 days) was 0.479 µM. Also, the Emax in series [2] (Mus musculus, efficacy of inhibition of colony formation, reported if non-toxic) was determined as 96.5 ± 7.24%. Also, the “SRB Assay Log IΔ2*PSD” value in series [3] is -4.65 ± 0.19 log [M]. In addition, the “Pharmacological property at β2-AR” value in series [4] was “Biased agonist/ activates ERK [46]”.
